Measurements published in ChEMBL document CHEMBL6134873, “Identification of Novel Cyclobutane-Based Derivatives as Potent Acetyl-CoA Carboxylase Allosteric Inhibitors for Nonalcoholic Steatohepatitis Drug Discovery” (J Med Chem, 2025).

Tests used:
[1] = target: Acetyl-CoA carboxylase 1 (Homo sapiens, UniProt Q13085)
Description: Inhibition of recombinant human ACC1 using acetyl-Co A as substrate incubated for 60 mins in presence of ATP by ADP-Glo assay

[2] = target: Acetyl-CoA carboxylase 2 (Homo sapiens, UniProt O00763)
Description: Inhibition of recombinant human ACC2 using acetyl-Co A as substrate incubated for 60 mins in presence of ATP by ADP-Glo assay

[3] = Oral bioavailability in Sprague-Dawley rat at 3 mg/kg measured for 0.25 to 24 hrs by LC-MS/MS analysis; type: ADME, organism-based; conditions: in vivo, time 0.25-24 hrs
[4] = Protein binding in rat plasma; type: ADME, cell-free; conditions: read-out: PPB (converted)
[5] = Intrinsic clearance in monkey liver microsomes; type: ADME, Macaca mulatta, Microsome; conditions: rhesus monkey, read-out: CLH
[6] = target: Cytochrome P450 2C19 (Homo sapiens, UniProt P33261); experiment: Inhibition of CYP2C19 (unknown origin); type: ADME
[7] = Intrinsic clearance in rat liver microsomes; type: ADME, Microsome; conditions: read-out: CLH
[8] = Intrinsic clearance in mouse liver microsomes; type: ADME, Microsome; conditions: read-out: CLH
[9] = target: T1, Cytochrome P450 1A2 (Homo sapiens, UniProt P05177); experiment: Inhibition of CYP1A2 (unknown origin); type: ADME
T1 sequence (P05177 whole entry): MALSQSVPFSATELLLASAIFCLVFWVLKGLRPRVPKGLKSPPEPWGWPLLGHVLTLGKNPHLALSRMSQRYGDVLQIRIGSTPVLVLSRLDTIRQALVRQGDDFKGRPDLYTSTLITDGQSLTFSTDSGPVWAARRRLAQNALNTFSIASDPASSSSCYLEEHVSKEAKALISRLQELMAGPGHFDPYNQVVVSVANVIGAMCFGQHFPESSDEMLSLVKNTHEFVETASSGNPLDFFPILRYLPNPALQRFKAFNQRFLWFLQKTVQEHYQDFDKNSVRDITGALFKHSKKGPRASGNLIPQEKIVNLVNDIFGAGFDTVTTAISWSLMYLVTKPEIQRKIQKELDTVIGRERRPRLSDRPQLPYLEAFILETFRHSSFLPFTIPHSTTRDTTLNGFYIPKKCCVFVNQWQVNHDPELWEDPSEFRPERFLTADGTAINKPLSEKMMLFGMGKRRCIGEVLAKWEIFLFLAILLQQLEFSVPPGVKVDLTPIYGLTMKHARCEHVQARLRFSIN

[10] = Biodistribution in 12 hr-fasted male wild-type Sprague-Dawley rat assessed as increase in ratio of drug concentration in liver/plasma at 3 mg/kg, po measured for 0.25 to 4 hrs by LC-MS/MS analysis; type: ADME, organism-based; conditions: in vivo, time 0.25-4 hrs
[11] = AUC (0 to t) in Sprague-Dawley rat at 3 mg/kg, po measured for 0.25 to 24 hrs by LC-MS/MS analysis; type: ADME, organism-based; conditions: in vivo, time 0.25-24 hrs
[12] = Tmax in Sprague-Dawley rat at 3 mg/kg, po measured for 0.25 to 24 hrs by LC-MS/MS analysis; type: ADME, organism-based; conditions: in vivo, time 0.25-24 hrs
[13] = target: Cytochrome P450 2C9 (Homo sapiens, UniProt P11712); experiment: Inhibition of CYP2C9 (unknown origin); type: ADME
[14] = Cmax in Sprague-Dawley rat at 3 mg/kg, po measured for 0.25 to 24 hrs by LC-MS/MS analysis; type: ADME, organism-based; conditions: in vivo, time 0.25-24 hrs
[15] = target: Cytochrome P450 2D6 (Homo sapiens, UniProt P10635); experiment: Inhibition of CYP2D6 (unknown origin); type: ADME
[16] = Inhibition of fatty acid synthesis in human HepG2 cells preincubated for 1.5 hrs followed by [14C] acetate addition measured after 1.5 hrs by liquid scintillation counter analysis; type: functional, cell-based
[17] = Protein binding in human plasma; type: ADME, cell-free; conditions: read-out: PPB (converted)
[18] = target: T2, Cytochrome P450 2B6 (Homo sapiens, UniProt P20813); experiment: Inhibition of CYP2B6 (unknown origin); type: ADME
T2 sequence (P20813 whole entry): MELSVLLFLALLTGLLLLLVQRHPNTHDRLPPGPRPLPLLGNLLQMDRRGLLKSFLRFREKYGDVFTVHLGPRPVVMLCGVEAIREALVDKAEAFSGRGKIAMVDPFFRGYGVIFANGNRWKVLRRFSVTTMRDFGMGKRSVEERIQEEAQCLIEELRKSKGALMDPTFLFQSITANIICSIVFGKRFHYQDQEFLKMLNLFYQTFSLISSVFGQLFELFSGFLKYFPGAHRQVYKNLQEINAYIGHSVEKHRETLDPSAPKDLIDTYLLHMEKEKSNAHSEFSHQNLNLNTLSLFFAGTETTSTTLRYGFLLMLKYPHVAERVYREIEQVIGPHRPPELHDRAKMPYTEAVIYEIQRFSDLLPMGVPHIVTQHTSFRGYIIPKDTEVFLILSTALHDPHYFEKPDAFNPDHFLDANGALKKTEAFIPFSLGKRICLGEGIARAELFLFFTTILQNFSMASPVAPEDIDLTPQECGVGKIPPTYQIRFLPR

[19] = target: Voltage-gated inwardly rectifying potassium channel KCNH2 (Homo sapiens, UniProt Q12809); experiment: Inhibition of hERG; type: toxicity
[20] = target: T3, Cytochrome P450 3A4 (Homo sapiens, UniProt P08684); experiment: Inhibition of CYP3A4 (unknown origin) using midazolam as substrate; type: ADME
[21] = target: T3, Cytochrome P450 3A4; experiment: Inhibition of CYP3A4 (unknown origin) using testosterone as substrate; type: ADME
[22] = Intrinsic clearance in dog liver microsomes; type: ADME, Canis lupus familiaris, Microsome; conditions: read-out: CLH
[23] = Clearance in Sprague-Dawley rat at 1 mg/kg, iv measured for 0.25 to 24 hrs by LC-MS/MS analysis; type: ADME, organism-based; conditions: in vivo, time 0.25-24 hrs
[24] = Half life in Sprague-Dawley rat at 1 mg/kg, iv measured for 0.25 to 24 hrs by LC-MS/MS analysis; type: ADME, organism-based; conditions: in vivo, time 0.25-24 hrs
[25] = Biodistribution in liver of 12 hr-fasted male wild-type Sprague-Dawley rat at 3 mg/kg, po measured after 4 hrs by LC-MS/MS analysis; type: ADME, organism-based; conditions: in vivo
[26] = MRT (0 to t) in Sprague-Dawley rat at 1 mg/kg, iv measured for 0.25 to 24 hrs by LC-MS/MS analysis; type: ADME, organism-based; conditions: in vivo, time 0.25-24 hrs
[27] = Intrinsic clearance in human liver microsomes; type: ADME, Microsome; conditions: read-out: CLH
[28] = AUC (0 to t) in Sprague-Dawley rat at 1 mg/kg, iv measured for 0.25 to 24 hrs by LC-MS/MS analysis; type: ADME, organism-based; conditions: in vivo, time 0.25-24 hrs
[29] = MRT (0 to t) in Sprague-Dawley rat at 3 mg/kg, po measured for 0.25 to 24 hrs by LC-MS/MS analysis; type: ADME, organism-based; conditions: in vivo, time 0.25-24 hrs
[30] = Volume of distribution in Sprague-Dawley rat at 1 mg/kg, iv measured for 0.25 to 24 hrs by LC-MS/MS analysis; type: ADME, organism-based; conditions: in vivo, time 0.25-24 hrs
[31] = target: T4, Cytochrome P450 2C8 (Homo sapiens, UniProt P10632); experiment: Inhibition of CYP2C8 (unknown origin); type: ADME
T4 sequence (P10632 whole entry): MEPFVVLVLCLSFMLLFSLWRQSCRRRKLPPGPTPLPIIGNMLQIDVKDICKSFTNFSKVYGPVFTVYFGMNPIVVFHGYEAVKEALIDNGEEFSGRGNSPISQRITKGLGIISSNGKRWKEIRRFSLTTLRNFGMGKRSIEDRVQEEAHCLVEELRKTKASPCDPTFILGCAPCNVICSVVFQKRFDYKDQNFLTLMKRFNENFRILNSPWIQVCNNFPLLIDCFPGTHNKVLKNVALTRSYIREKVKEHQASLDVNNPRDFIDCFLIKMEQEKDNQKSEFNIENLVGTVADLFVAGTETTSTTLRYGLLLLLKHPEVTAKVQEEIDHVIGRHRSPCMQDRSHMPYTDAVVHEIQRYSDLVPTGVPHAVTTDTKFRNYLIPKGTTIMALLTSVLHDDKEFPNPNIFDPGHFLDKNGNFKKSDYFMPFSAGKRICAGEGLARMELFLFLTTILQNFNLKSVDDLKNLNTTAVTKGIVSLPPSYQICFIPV

[32] = Half life in Sprague-Dawley rat at 3 mg/kg, po measured for 0.25 to 24 hrs by LC-MS/MS analysis; type: ADME, organism-based; conditions: in vivo, time 0.25-24 hrs
[33] = Inhibition of ACC2 in rat skeletal muscle using KH[14C]O3 as substrate measured after 7 mins in presence of ATP by liquid scintillation counter analysis

Acetyl-CoA carboxylase 2, sequence (O00763 whole entry): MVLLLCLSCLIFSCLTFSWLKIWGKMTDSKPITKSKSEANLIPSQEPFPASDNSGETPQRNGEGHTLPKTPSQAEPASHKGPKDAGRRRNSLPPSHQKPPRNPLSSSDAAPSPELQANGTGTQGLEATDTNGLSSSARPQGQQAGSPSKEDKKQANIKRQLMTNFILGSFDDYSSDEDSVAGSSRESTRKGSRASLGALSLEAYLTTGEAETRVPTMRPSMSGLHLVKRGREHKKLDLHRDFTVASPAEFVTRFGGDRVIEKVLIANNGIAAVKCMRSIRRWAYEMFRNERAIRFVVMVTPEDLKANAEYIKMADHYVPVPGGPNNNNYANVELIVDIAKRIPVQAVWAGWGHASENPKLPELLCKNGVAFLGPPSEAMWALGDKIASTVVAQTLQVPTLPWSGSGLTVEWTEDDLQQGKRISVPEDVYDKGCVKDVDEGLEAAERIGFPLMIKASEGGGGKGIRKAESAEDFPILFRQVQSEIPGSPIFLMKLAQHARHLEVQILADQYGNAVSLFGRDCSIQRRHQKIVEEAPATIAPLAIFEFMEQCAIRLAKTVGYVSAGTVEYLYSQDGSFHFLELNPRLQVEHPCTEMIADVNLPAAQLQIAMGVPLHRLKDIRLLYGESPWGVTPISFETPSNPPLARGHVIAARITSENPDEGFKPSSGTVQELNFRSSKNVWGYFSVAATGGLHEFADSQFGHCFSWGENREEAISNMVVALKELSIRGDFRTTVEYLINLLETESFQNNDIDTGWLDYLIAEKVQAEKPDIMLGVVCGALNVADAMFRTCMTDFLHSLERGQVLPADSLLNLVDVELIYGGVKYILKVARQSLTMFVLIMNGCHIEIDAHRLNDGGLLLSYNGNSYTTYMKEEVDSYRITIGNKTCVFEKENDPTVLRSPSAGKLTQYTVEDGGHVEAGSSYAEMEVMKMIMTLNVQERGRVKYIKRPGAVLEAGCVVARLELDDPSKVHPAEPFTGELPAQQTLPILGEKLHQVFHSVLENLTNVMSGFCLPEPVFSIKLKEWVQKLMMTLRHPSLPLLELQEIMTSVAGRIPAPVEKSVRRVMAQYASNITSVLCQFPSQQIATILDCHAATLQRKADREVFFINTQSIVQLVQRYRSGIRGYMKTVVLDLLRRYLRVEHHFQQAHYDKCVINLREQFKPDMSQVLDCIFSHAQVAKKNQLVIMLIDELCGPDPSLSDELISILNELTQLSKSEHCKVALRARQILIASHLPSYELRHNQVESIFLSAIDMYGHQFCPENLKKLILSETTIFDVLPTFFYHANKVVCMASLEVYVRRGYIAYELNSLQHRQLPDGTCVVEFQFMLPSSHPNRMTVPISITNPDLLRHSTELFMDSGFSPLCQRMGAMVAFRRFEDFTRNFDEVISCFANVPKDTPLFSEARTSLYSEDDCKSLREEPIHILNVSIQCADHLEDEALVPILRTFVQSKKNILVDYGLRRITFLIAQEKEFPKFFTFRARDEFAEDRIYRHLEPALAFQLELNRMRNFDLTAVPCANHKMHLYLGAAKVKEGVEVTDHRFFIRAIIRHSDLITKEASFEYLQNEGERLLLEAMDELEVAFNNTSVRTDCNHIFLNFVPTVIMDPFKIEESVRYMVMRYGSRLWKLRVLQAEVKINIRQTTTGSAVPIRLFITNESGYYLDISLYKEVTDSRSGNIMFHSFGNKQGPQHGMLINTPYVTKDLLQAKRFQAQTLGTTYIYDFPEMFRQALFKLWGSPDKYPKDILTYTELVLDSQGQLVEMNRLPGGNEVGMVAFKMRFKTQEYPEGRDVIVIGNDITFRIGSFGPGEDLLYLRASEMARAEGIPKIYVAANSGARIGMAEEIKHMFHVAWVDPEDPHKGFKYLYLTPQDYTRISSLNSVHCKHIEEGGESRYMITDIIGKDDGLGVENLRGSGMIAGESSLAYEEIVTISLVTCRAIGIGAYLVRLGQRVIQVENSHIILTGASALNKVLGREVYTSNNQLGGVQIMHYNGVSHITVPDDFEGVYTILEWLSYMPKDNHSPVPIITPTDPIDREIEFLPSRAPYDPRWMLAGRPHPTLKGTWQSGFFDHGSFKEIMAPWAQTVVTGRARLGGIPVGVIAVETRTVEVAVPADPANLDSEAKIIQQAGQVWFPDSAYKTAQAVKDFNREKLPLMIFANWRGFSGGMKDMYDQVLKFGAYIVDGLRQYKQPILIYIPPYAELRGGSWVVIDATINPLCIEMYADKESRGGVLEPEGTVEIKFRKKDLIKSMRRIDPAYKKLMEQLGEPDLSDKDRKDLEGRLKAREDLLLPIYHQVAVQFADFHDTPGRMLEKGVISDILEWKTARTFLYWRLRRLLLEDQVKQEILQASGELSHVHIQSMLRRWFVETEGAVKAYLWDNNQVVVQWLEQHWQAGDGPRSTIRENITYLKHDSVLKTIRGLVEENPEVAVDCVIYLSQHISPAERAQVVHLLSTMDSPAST
T3 sequence (P08684 whole entry): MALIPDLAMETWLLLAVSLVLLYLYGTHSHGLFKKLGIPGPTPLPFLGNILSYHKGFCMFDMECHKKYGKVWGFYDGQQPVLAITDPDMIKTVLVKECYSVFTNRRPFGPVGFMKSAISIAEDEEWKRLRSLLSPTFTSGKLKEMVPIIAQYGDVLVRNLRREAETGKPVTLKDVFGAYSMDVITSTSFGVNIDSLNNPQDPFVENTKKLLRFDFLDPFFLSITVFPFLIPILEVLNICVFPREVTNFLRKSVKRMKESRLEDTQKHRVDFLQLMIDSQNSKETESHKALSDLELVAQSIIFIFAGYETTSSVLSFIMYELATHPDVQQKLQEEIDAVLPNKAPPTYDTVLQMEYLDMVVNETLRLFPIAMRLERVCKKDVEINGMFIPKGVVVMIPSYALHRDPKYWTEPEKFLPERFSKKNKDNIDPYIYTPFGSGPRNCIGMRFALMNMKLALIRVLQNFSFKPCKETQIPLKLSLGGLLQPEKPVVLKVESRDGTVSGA
Cytochrome P450 2C19, sequence (P33261 whole entry): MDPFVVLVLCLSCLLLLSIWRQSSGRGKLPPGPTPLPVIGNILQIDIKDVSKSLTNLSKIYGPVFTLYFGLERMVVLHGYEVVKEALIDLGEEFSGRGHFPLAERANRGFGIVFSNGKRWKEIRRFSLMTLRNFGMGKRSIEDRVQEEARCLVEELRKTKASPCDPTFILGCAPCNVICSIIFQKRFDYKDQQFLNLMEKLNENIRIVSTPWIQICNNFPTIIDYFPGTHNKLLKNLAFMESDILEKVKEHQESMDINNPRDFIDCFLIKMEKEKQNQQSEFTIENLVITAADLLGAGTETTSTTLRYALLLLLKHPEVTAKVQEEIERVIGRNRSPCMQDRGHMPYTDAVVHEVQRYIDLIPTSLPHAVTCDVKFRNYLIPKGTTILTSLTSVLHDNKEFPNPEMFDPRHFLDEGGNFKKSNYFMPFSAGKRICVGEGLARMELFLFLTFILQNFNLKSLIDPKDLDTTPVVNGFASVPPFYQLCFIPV
Cytochrome P450 2D6, sequence (P10635 whole entry): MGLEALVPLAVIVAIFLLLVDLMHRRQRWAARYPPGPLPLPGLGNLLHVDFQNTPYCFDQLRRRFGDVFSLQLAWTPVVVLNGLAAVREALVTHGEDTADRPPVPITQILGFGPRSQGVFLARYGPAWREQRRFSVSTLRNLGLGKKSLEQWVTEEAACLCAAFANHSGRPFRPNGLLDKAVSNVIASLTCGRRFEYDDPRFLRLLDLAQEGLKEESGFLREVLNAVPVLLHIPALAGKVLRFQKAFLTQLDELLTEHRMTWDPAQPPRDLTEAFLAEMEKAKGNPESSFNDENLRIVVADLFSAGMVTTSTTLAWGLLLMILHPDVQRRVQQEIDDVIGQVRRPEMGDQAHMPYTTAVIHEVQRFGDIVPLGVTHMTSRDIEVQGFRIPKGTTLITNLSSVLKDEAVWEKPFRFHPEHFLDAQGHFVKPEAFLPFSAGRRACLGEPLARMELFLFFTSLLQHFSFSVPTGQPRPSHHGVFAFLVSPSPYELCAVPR
Cytochrome P450 2C9, sequence (P11712 whole entry): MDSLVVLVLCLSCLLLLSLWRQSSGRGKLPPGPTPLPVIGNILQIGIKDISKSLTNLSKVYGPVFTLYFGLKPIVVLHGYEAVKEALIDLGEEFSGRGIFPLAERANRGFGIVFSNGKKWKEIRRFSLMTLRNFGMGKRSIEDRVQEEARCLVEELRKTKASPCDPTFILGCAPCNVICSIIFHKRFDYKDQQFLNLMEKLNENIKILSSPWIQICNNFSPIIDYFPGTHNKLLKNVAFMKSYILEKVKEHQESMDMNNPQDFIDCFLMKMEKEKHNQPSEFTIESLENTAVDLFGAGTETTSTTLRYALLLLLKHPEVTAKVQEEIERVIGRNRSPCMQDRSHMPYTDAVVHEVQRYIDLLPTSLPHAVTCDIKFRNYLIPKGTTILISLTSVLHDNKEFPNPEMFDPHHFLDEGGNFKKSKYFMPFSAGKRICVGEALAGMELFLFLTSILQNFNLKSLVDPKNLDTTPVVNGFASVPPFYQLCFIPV

Structure (SMILES): COc1ccccc1[C@H](Cn1c(=O)n(C2CN(C(=O)c3ncc[nH]3)C2)c(=O)c2c(C)c(-c3ncco3)sc21)OC1CCOCC1
- IC50 [1]: 1.52 nM
- IC50 [2]: 6.18 nM

Structure (SMILES): COc1ccccc1[C@H](Cn1c(=O)n(C(C)(C)C(=O)O)c(=O)c2c(C)c(-c3ncco3)sc21)OC1CCOCC1 [FIRSOCOSTAT]
- bioavailability [3]: 51.1%
- fraction unbound [4]: 0.014
- CLint scaled [5]: < 13 mL/min/kg
- IC50 [6]: > 30000 nM
- CLint scaled [7]: 4.3 mL/min/kg
- CLint scaled [8]: < 38 mL/min/kg
- IC50 [9]: > 30000 nM
- Drug uptake [10]: Active
- IC50 [1]: 0.49 nM
- IC50 [2]: 5.14 nM
- AUC(0-t) [11]: 628 ng·h/mL
- Tmax [12]: 6 min
- IC50 [13]: > 30000 nM
- Cmax [14]: 213 ng/mL
- IC50 [15]: > 30000 nM
- IC50 [16]: 4.8 nM
- fraction unbound [17]: 0.015
- IC50 [18]: > 30000 nM
- IC50 [19]: > 30000 nM
- IC50 [20]: > 30000 nM
- IC50 [21]: > 30000 nM
- CLint scaled [22]: 7.2 mL/min/kg
- clearance [23]: 33.3 mL/min/kg
- half-life [24]: 426 min
- Drug uptake [25]: Active
- MRT last [26]: 102 min
- CLint scaled [27]: 6 mL/min/kg
- AUC(0-t) [28]: 409 ng·h/mL
- MRT last [29]: 246 min
- Vd [30]: 21.4 L/kg
- IC50 [31]: > 30000 nM

Structure (SMILES): COc1ccccc1[C@H](Cn1c(=O)n(CC2(C(=O)O)CC2)c(=O)c2c(C)c(-c3ncco3)sc21)OC1CCOCC1
- IC50 [1]: 0.85 nM

Structure (SMILES): COc1ccccc1[C@H](Cn1c(=O)n(C2CN(C(=O)c3ccccn3)C2)c(=O)c2c(C)c(-c3ncco3)sc21)OC1CCOCC1
- IC50 [1]: 2.1 nM
- IC50 [2]: 6.42 nM

Structure (SMILES): COc1ccccc1[C@H](Cn1c(=O)n(C2CN(C(=O)N3CCOCC3)C2)c(=O)c2c(C)c(-c3ncco3)sc21)OC1CCOCC1
- IC50 [1]: 1.1 nM
- IC50 [2]: 9.14 nM

Structure (SMILES): COc1ccccc1[C@H](Cn1c(=O)n([C@H]2C[C@](C)(C(=O)O)C2)c(=O)c2c(C)c(-c3ncco3)sc21)OC1CCOCC1
- IC50 [1]: 1.37 nM
- IC50 [2]: 16.5 nM

Structure (SMILES): COc1ccccc1[C@H](Cn1c(=O)n(C2CC(F)(F)C2)c(=O)c2c(C)c(-c3ncco3)sc21)OC1CCOCC1
- IC50 [1]: 9.42 nM

Structure (SMILES): COc1ccccc1[C@H](Cn1c(=O)n(C2CN(CC(F)(F)F)C2)c(=O)c2c(C)c(-c3ncco3)sc21)OC1CCOCC1
- IC50 [1]: 0.95 nM

Structure (SMILES): COc1ccccc1[C@H](Cn1c(=O)n(C2CN(C(=O)N3CC(C)(O)C3)C2)c(=O)c2c(C)c(-c3ncco3)sc21)OC1CCOCC1
- IC50 [1]: 9.47 nM

Structure (SMILES): COc1ccccc1[C@H](Cn1c(=O)n(C2CN(C(=O)N3CC(C)(C(=O)O)C3)C2)c(=O)c2c(C)c(-c3ncco3)sc21)OC1CCOCC1
- IC50 [1]: 12.1 nM

Structure (SMILES): COc1ccccc1[C@H](Cn1c(=O)n(C2CN(C(=O)c3ccccc3)C2)c(=O)c2c(C)c(-c3ncco3)sc21)OC1CCOCC1
- IC50 [1]: 5.36 nM

Structure (SMILES): COc1ccccc1[C@H](Cn1c(=O)n([C@H]2C[C@@H](C(=O)O)C2)c(=O)c2c(C)c(-c3ncco3)sc21)OC1CCOCC1
- bioavailability [3]: 5.7%
- half-life [32]: 24 min
- IC50 [1]: 0.79 nM
- IC50 [2]: 5.13 nM
- AUC(0-t) [11]: 13.8 ng·h/mL
- Tmax [12]: 36 min
- Cmax [14]: 21.3 ng/mL
- clearance [23]: 180 mL/min/kg
- half-life [24]: 12 min
- MRT last [26]: 6 min
- AUC(0-t) [28]: 80.8 ng·h/mL
- MRT last [29]: 24 min
- Vd [30]: 2.6 L/kg

Structure (SMILES): COc1ccccc1[C@H](Cn1c(=O)n(-c2c(C)ccn3ccnc23)c(=O)c2c(C)c(-c3ncco3)sc21)OC1CCOCC1
- IC50 [1]: 52.9 nM

Structure (SMILES): O=C(c1c2ccccc2cc2ccccc12)N1CCC(N2CCC[C@@H](C(=O)N3CCOCC3)C2)CC1
- IC50 [33]: 61 nM

Structure (SMILES): COc1ccccc1[C@H](Cn1c(=O)n([C@H]2C[C@](C)(C(N)=O)C2)c(=O)c2c(C)c(-c3ncco3)sc21)OC1CCOCC1
- IC50 [1]: 1.05 nM
